Patent publication US7767659B2, “Synthesis of naturally occurring ecteinascidins and related compounds” (Pharma Mar, S.A., priority 2002, dated 2010)
Like-named read-outs stand apart in the source and are kept apart here.

Assays:
[1] = tested on: LoVo; assay: cells; details: Homo sapiens, LoVo, 48 h
Procedure, shortened: (§1)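 Colorimetric SRB read (490 nm) on triplicate wells after 48 h at 37 °C, 5% CO2. Dose range 10 to 10^−8 μg/ml; 5×10^3 cells/well pre-attached 18 h.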

[2] = tested on: HT-29; assay: cells; details: Homo sapiens, HT-29, 48 h
Procedure, shortened: as §1

[3] = tested on: A-549; assay: cells; details: Homo sapiens, A549, 48 h
Procedure, shortened: as §1

[4] = tested on: IGROV-1; assay: Inhibition of cells growth by colorimetric assay (SRB); details: Homo sapiens, IGROV-1, 48 h
Procedure, shortened: as §1

[5] = tested on: DU-145; assay: as above; details: Homo sapiens, DU-145, 48 h
Procedure, shortened: as §1

[6] = tested on: K-562; assay: as above; details: Homo sapiens, K562, 48 h
Procedure, shortened: as §1

[7] = tested on: SK-MEL-28; assay: as above; details: Homo sapiens, SK-MEL-28, 48 h
Procedure, shortened: as §1

[8] = tested on: IGROV-ET; assay: as above; details: Homo sapiens, 48 h
Procedure, shortened: as §1

[9] = tested on: LoVo-Dox; assay: as above; details: Homo sapiens, 48 h
Procedure, shortened: as §1

[10] = tested on: SK-OV-3; assay: as above; details: for GI50 / CC50: Homo sapiens, SK-OV-3, 48 h; for GI50: read-out: SK-OV3 GI50; for CC50: read-out: SK-OV3 LC50; for SK-OV3 TGI: SRB, 48 hours exposure
Procedure, shortened: as §1

[11] = tested on: PANC-1; assay: as above; details: Homo sapiens, PANC-1, 48 h
Procedure, shortened: as §1

[12] = tested on: LNCaP; assay: as above; details: Homo sapiens, LNCaP, 48 h
Procedure, shortened: as §1

[13] = tested on: HeLa; assay: as above; details: Homo sapiens, HeLa, 48 h
Procedure, shortened: as §1

[14] = tested on: HeLa-APL; assay: as above; details: Homo sapiens, 48 h
Procedure, shortened: as §1

[15] = tested on: SK-BR-3; assay: as above; details: Homo sapiens, SK-BR-3, 48 h
Procedure, shortened: as §1

With `COc1cc2c(cc1O)CCN[C@]21CS[C@@H]2c3c(OC(C)=O)c(C)c4c(c3[C@H](CNC1=O)N1C2[C@H]2c3c(cc(C)c(OC)c3O)C[C@@H]([C@@H]1C#N)N2C)OCO4` (stereo partly drawn) [compound 76] as the molecule, how does the GI50 ([1]; read-out: LOVO GI50) read?
Its GI50 is 274 nM.

And the CC50 ([1]; read-out: LOVO LC50)?
The CC50 was 1300 nM.

And the IC (TGI) ([1]; read-out: LOVO TGI)?
The IC (TGI) was 683 nM.

And the GI50 ([2]; read-out: HT29 GI50)?
The GI50 was 627 nM.

What about the CC50 ([2]; read-out: HT29 LC50) of the same molecule?
Its CC50 is 13000 nM.

And the IC (TGI) ([2]; read-out: HT29 TGI)?
The IC (TGI) was 1300 nM.

What about the GI50 ([3]; read-out: A549 GI50) of the same molecule?
Its GI50 is 413 nM.

And the CC50 ([3]; read-out: A549 LC50)?
Its CC50 is 4650 nM.

What about the IC (TGI) ([3]; read-out: A549 TGI) of the same molecule?
The IC (TGI) was 840 nM.

And the GI50 ([4]; read-out: IGROV GI50)?
Its GI50 is 197 nM.

What about the CC50 ([4]; read-out: IGROV LC50) of the same molecule?
Its CC50 is 5250 nM.

And the IC (TGI) ([4]; read-out: IGROV TGI)?
The IC (TGI) was 648 nM.

And the GI50 ([5]; read-out: DU145 GI50)?
Its GI50 is 492 nM.

What about the CC50 ([5]; read-out: DU145 LC50) of the same molecule?
Its CC50 is 13000 nM.

And the IC (TGI) ([5]; read-out: DU145 TGI)?
Its IC (TGI) is 1340 nM.

What about the GI50 ([6]; read-out: K562 GI50) of the same molecule?
Its GI50 is 26.9 nM.

And the CC50 ([6]; read-out: K562 LC50)?
Its CC50 is 13000 nM.

What about the IC (TGI) ([6]; read-out: K562 TGI) of the same molecule?
Its IC (TGI) is 130 nM.

And the GI50 ([7]; read-out: MEL-28 GI50)?
Its GI50 is 238 nM.

What about the CC50 ([7]; read-out: MEL-28 LC50) of the same molecule?
Its CC50 is 1270 nM.

And the IC (TGI) ([7]; read-out: MEL-28 TGI)?
Its IC (TGI) is 549 nM.

And the GI50 ([8]; read-out: IGROV-ET GI50)?
The GI50 was 513 nM.

What about the CC50 ([8]; read-out: IGROV-ET LC50) of the same molecule?
Its CC50 is 1300 nM.

What about the IC (TGI) ([8]; read-out: IGROV-ET TGI) of the same molecule?
The IC (TGI) was 924 nM.

What about the GI50 ([9]; read-out: LOVO-DOX GI50) of the same molecule?
Its GI50 is 2660 nM.

And the CC50 ([9]; read-out: LOVO-DOX LC50)?
Its CC50 is 13000 nM.

What about the IC (TGI) ([9]; read-out: LOVO-DOX TGI) of the same molecule?
Its IC (TGI) is 8130 nM.

And the GI50 [10]?
The GI50 was 547 nM.

What about the CC50 [10] of the same molecule?
Its CC50 is 13000 nM.

What about the “SK-OV3 TGI” value [10] of the same molecule?
Its value is 1.90E−06 Molar.

What about the GI50 ([11]; read-out: PANC-1 GI50) of the same molecule?
Its GI50 is 695 nM.

What about the CC50 ([11]; read-out: PANC-1 LC50) of the same molecule?
The CC50 was 13000 nM.

And the IC (TGI) ([11]; read-out: PANC-1 TGI)?
Its IC (TGI) is 4970 nM.

What about the GI50 ([12]; read-out: LNCAP GI50) of the same molecule?
The GI50 was 46.6 nM.

And the CC50 ([12]; read-out: LNCAP LC50)?
The CC50 was 257 nM.

And the IC (TGI) ([12]; read-out: LNCAP TGI)?
The IC (TGI) was 80.7 nM.

Which results are given for `COc1cc2c(cc1O)CCN[C@]21CS[C@@H]2c3c(OC(C)=O)c(C)c4c(c3[C@H](CNC1=O)N1C2[C@H]2c3c(cc(C)c(OC)c3O)CC([C@@H]1O)N2C)OCO4` (stereo partly drawn) [compound 77]?
GI50 ([1]; read-out: LOVO GI50): 241 nM; CC50 ([1]; read-out: LOVO LC50): 13100 nM; IC (TGI) ([1]; read-out: LOVO TGI): 917 nM; GI50 ([2]; read-out: HT29 GI50): 189 nM; CC50 ([2]; read-out: HT29 LC50): 13100 nM; IC (TGI) ([2]; read-out: HT29 TGI): 908 nM; GI50 ([3]; read-out: A549 GI50): 301 nM; CC50 ([3]; read-out: A549 LC50): 3650 nM; IC (TGI) ([3]; read-out: A549 TGI): 728 nM; GI50 ([4]; read-out: IGROV GI50): 58 nM; CC50 ([4]; read-out: IGROV LC50): 6320 nM; IC (TGI) ([4]; read-out: IGROV TGI): 272 nM; GI50 ([5]; read-out: DU145 GI50): 301 nM; CC50 ([5]; read-out: DU145 LC50): 13100 nM; IC (TGI) ([5]; read-out: DU145 TGI): 1160 nM; GI50 ([6]; read-out: K562 GI50): 16.6 nM; CC50 ([6]; read-out: K562 LC50): 13100 nM; IC (TGI) ([6]; read-out: K562 TGI): 101 nM; GI50 ([7]; read-out: MEL-28 GI50): 63.1 nM; CC50 ([7]; read-out: MEL-28 LC50): 756 nM; IC (TGI) ([7]; read-out: MEL-28 TGI): 175 nM; GI50 ([8]; read-out: IGROV-ET GI50): 652 nM; CC50 ([8]; read-out: IGROV-ET LC50): 13100 nM; IC (TGI) ([8]; read-out: IGROV-ET TGI): 1700 nM; GI50 ([9]; read-out: LOVO-DOX GI50): 929 nM; CC50 ([9]; read-out: LOVO-DOX LC50): 13100 nM; IC (TGI) ([9]; read-out: LOVO-DOX TGI): 5660 nM; GI50 [10]: 439 nM; CC50 [10]: 13100 nM; SK-OV3 TGI [10]: 4.86E−06 Molar; GI50 ([11]; read-out: PANC-1 GI50): 418 nM; CC50 ([11]; read-out: PANC-1 LC50): 13100 nM; IC (TGI) ([11]; read-out: PANC-1 TGI): 2720 nM; GI50 ([12]; read-out: LNCAP GI50): 43.5 nM; CC50 ([12]; read-out: LNCAP LC50): 118 nM; IC (TGI) ([12]; read-out: LNCAP TGI): 71 nM

Which results are given for `C=CCN1[C@@H]2c3c(cc(C)c(OC)c3O)C[C@H]1[C@H](C#N)N1C2[C@@H]2SCC(N)C(=O)OC[C@H]1c1c3c(c(C)c(OC(C)=O)c12)OCO3` (stereo partly drawn) [compound 12]?
GI50 ([1]; read-out: GI50 LOVO): 399 nM; CC50 ([1]; read-out: LC50 LOVO): 3210 nM; IC (TGI) ([1]; read-out: TGI LOVO): 808 nM; GI50 ([2]; read-out: GI50 HT29): 503 nM; CC50 ([2]; read-out: LC50 HT29): 15400 nM; IC (TGI) ([2]; read-out: TGI HT29): 1270 nM; GI50 ([3]; read-out: GI50 A549): 338 nM; CC50 ([3]; read-out: LC50 A549): 1160 nM; IC (TGI) ([3]; read-out: TGI A549): 624 nM; GI50 ([4]; read-out: GI50 IGROV): 225 nM; CC50 ([4]; read-out: LC50 IGROV): 1050 nM; IC (TGI) ([4]; read-out: TGI IGROV): 486 nM; GI50 ([13]; read-out: GI50 HELA): 344 nM; CC50 ([13]; read-out: LC50 HELA): 1120 nM; IC (TGI) ([13]; read-out: TGI HELA): 621 nM; GI50 ([5]; read-out: GI50 DU145): 535 nM; CC50 ([5]; read-out: LC50 DU145): 4220 nM; IC (TGI) ([5]; read-out: TGI DU145): 1020 nM; GI50 ([6]; read-out: GI50 K562): 110 nM; CC50 ([6]; read-out: LC50 K562): 15400 nM; IC (TGI) ([6]; read-out: TGI K562): 2510 nM; GI50 ([7]; read-out: GI50 MEL-28): 350 nM; CC50 ([7]; read-out: LC50 MEL-28): 1030 nM; IC (TGI) ([7]; read-out: TGI MEL-28): 603 nM; GI50 ([8]; read-out: GI50 IGROV-ET): 635 nM; CC50 ([8]; read-out: LC50 IGROV-ET): 3820 nM; IC (TGI) ([8]; read-out: TGI IGROV-ET): 1070 nM; GI50 ([14]; read-out: GI50 HELA-APL): 244 nM; CC50 ([14]; read-out: LC50 HELA-APL): 914 nM; IC (TGI) ([14]; read-out: TGI HELA-APL): 472 nM; GI50 ([9]; read-out: GI50 LOVO-DOX): 504 nM; CC50 ([9]; read-out: LC50 LOVO-DOX): 12200 nM; IC (TGI) ([9]; read-out: TGI LOVO-DOX): 971 nM; GI50 ([15]; read-out: GI50 SK-BR3): 256 nM; CC50 ([15]; read-out: LC50 SK-BR3): 979 nM; IC (TGI) ([15]; read-out: TGI SK-BR3): 501 nM; GI50 ([11]; read-out: GI50 PANC-1): 472 nM; CC50 ([11]; read-out: LC50 PANC-1): 4070 nM; IC (TGI) ([11]; read-out: TGI PANC-1): 953 nM; GI50 ([12]; read-out: GI50 LNCAP): 82.5 nM; CC50 ([12]; read-out: LC50 LNCAP): 711 nM; IC (TGI) ([12]; read-out: TGI LNCAP): 251 nM
